Here are results for five molecules from EP1492876B1, “CATIONIC AMPHIPHILES FOR INTRACELLULAR DELIVERY OF THERAPEUTIC MOLECULES, COMPOSITION, PROCESS AND USE THEREOF” (COUNCIL OF SCIENTIFIC AND INDUSTRIAL RESEARCH, priority 2002, dated 2003).

The test system of one data set is DNA. Description: Lipid:DNA interactions assay (ethidium bromide exclusion, fluorescence). As to conditions: EtBr: pCMV β-gal complex titrated with lipid, TE buffer pH 8.0; Figure 2. It counts as binding. An excerpt:
Lipid:DNA Interactions Assay. Intercalation-induced fluorescence increase and competition with cationic lipids to bind to DNA has made Ethidium Bromide (EtBr) an excellent tool to study cationic lipid-DNA interactions. To assess the representative lipid:DNA interactions for the cationic lipids of the present invention, we have titrated the EtBr: pCMV β-gal complex with increasing amounts of cationic lipids 1-5.
The extent of Et.Br binding to the DNA was monitored by the changes in the fluorescence. EtBr fluorescence was monitored in Hitachi 4500 fluorimeter by setting the excitation wavelength at 518 nm and emission wavelength at 585 nm. To one ml of TE buffer (pH 8.0), 0.78 nmoles of DNA and 2.5 nmoles of EtBr were added. The change in fluorescence was monitored after adding small volumes of lipids 1-5 to the EtBr:DNA complex. Arbitrary fluorescence values were recorded after allowing sufficient time for equilibration. […] Percent fluorescence was calculated considering the fluorescence value in the absence of lipid as 100.

The nature of data set [1]: MTT based viability assay (toxicity assay). It counts as cell-based. The note with it: monkey; COS-1 cells, 3:1 charge ratio. As to the method:
Toxicity Assays. An MTT based viability assay was performed to assess the cytotoxicity of lipids 1-5 at various lipid:DNA charge ratios with COS-1 cells as described previously (Banerjee, R. et al. 1999). […] For lipids 1, 4 and 5 at a 3:1 charge ratio the toxicity varied from 15-25 % of the treated cells. The toxicity of lipid 2 (with shorter alkyl chains) may originate from its probable detergent-like cell-lysing activity.
Background: Tetrazolium dyes change colour on reduction, which living cells bring about.

The subject of a further data set is COS-1 cells. Nature of the data set: Cell transfection (β-galactosidase reporter gene activity). It counts as cell-based. The note with it: 0.15 µg plasmid DNA, lipid 0.05 - 4.3 nmoles, reporter gene activity after 48 h, Figure 1, compared with DMRIE. As to the method: Similar examples of plasmid include PGL-2 and PGL-3 of Promega and others.
Cell Transfection. COS-1 cells were seeded at a density of 15,000 cells/well in a 96-well plate eighteen hours before the transfection. 0.15 µg of plasmid DNA was complexed with varying amount of lipid (0.05 - 4.3 nmoles) in 13 µl of plain DMEM medium for 30 min. The charge ratios were varied from 0.1 : 1 to 9 : 1 (+/-) over this range of the lipid. The complex was diluted to 100 µl with plain DMEM and added to the wells. After 3 h of incubation, 100 µl of DMEM with 10 % FCS was added to the cells. The medium was changed to 10 % complete medium after 24 h and the reporter gene activity was estimated after 48 h. The cells were washed twice with PBS and lysed in 50 µl of lysis buffer (0.25 M Tris.HCl, pH 8.0 and 0.5% NP40). Care was taken to ensure complete lysis. The β-galactosidase activity per well was estimated by adding 50 µl of 2X substrate solution (1.33 mg/ml of ONPG, 0.2 M sodium phosphate, pH 7.15 and 2 mM magnesium chloride) to the lysate in a 96-well plate. Absorption at 405 nm was converted to β-galactosidase units by using calibration curve constructed with pure commercial β-galactosidase enzyme. The values of β-galactosidase units in replicate plates assayed on the same day varied by less than 30 %. […]
(In general: Reporter assays use an easily measured gene product as a stand-in for the process of interest.)

Turning to `CCCCCCCCCCCC[N+]1(CCCCCCCCCCCC)CC(O)C(O)C1` (stereo not drawn) [compound 1], in the data set with DNA, the “lipid:DNA interaction (ability to exclude ethidium bromide from DNA)” value (“lipid:DNA interaction” below) was “interact poorly with DNA”. For the same molecule, the cytotoxicity in data set [1] was in the range of 15 to 25%. `CCCCCCCCCCCCCC[N+]1(CCCCCCCCCCCCCC)CC(O)C(O)C1` (stereo not drawn) [compound 2]: the “lipid:DNA interaction” value with DNA was “interact with DNA equally well up to lipid:DNA ratio of 1.25 or so”. For the same molecule, in the data set on COS-1 cells, the “in vitro transfection efficiency” value was “comparable to or better than that of DMRIE”. `CCCCCCCCCCCCCCCC[N+]1(CCCCCCCCCCCCCCCC)CC(O)C(O)C1` (stereo not drawn) [compound 3]: in the data set with DNA, the “lipid:DNA interaction” value is on record as “interact with DNA equally well up to lipid:DNA ratio of 1.25 or so”. Regarding `CCCCCCCCCCCCCCCCCC[N+]1(CCCCCCCCCCCCCCCCCC)CC(O)C(O)C1` (stereo not drawn) [compound 4], the “lipid:DNA interaction” value in the data set on DNA was “interact poorly with DNA”. Further, the cytotoxicity in data set [1] fell in the range of 15 to 25%. The like results for `CCCCCCCC/C=C\CCCCCCCC[N+]1(CCCCCCCCCCCCCCCCCC)CC(O)C(O)C1` (stereo not drawn) [compound 5] were, in that order, “interact poorly with DNA” and 15 to 25%.
